Values quoted from earlier work, collected in patent publication US20100209503A1, “Bitter Taste Masking Dosage Form” (priority 2005, published 2010).
Counter-ions that a name gives are not always drawn.

Details: expression of General Notices of Japanese Pharmacopoeia 14th revision

SMILES | solubility in water
Cc1c(C(C)C)c(=O)n(-c2ccccc2)n1C [isopropylantipyrine] | hardly soluble (not less than 0.001 g/mL and less than 0.01 g/mL)
NC(=O)c1cccnc1 [nicotinic acid amide] | easily soluble (not less than 0.1 g/mL and less than 1.0 g/mL)
CN(C)C(=O)c1nc(CNC(=O)CN)n(-c2ccc(Cl)cc2C(=O)c2ccccc2Cl)n1 [rilmazafone hydrochloride] | slightly soluble (not less than 0.033 g/mL and less than 0.1 g/mL)
